Laboratory results taken from article PMC10718076, “1,2-Disubstituted bicyclo[2.1.1]hexanes as saturated bioisosteres of ortho-substituted benzene” (Chemical Science, 2023).
Values after ≈ are worked out from the molar mass of the structure shown. Structures can show the parent of a compound that is named as a salt. Where two headings read alike, the source gives them in different places.

How the values were obtained:
in vitro = conditions: both, human
[1] = Metabolic stability in human liver microsomes; conditions: both; for remaining at 40 min, 2 µM: Mean of 2, 40 min; for remaining at 25 min, 2 µM: Mean of 2, 25 min; for k el at 2 µM: pH 7.4, kel; for half-life at 2 µM: pH 7.4, t1/2, Table S6, 1st batch
[2] = Kinetic solubility in phosphate-buffered saline, pH 7.4; format: physicochemical; conditions: 25 °C, pH 7.4, aqueous buffer, kinetic from dmso stock; for solubility at 2 h: PBS solubility
Protocol: Analysis of Aqueous Solubility […]
compound (Ondansetron) were assessed for kinetic solubility in phosphate -buffered saline, pH 7.4.
Phosphate buffered saline, pH 7.4 (Sigma -Aldrich, USA; Cat #P3813) […]
MultiScreen HTS 96 Well Filter Plates (Millipore, Ireland; Cat # MSSLBPC10) […]
Matrix Multichannel Electronic Pipette 2-125 μL, 5-250 μL, 15-1250 μL (Thermo Scientific, USA; […]
Vacuum pump (Millipore, USA; Model # XX5500000)
The measurements were performed using SpectraMax Plus reader in UV -Vis mode. Acquisition and […]
The measurements were performed using SpectraMax Paradigm reader in UV-Vis mode.
Acquisition and analysis of the data were performed using SoftMax Pro v.5.4 (Molecular Devices) […]
Kinetic solubility assay was performed according to the Enamine’s aqueous solubility SOP. Briefly, using a 20 mM stock solution of the compound in 100% DMSO dilutions were prepared to a theoretical concentration of 400 μM in duplicates in phosphate-buffered saline pH 7.4 […]
compound dilutions in PBS were further allowed to equilibrate at 25 °C on a thermostatic shaker for two hours and then filtered through HTS filter plates using a vacuum manifold. The filtrates of test compounds were diluted 2-fold with acetonitrile with 2% DMSO before measuring.
In parallel, compound dilutions in 50% acetonitrile/PBS were prepared to theoretical concentrations […]
calibration curves. Ondansetron was used as reference compound to control proper assay performance. 200 μl of each sample was transferred to 96-well plate and measured in 230-550 nm range with 5 nm step. The effective range of this assay is approximately 2-400 μM and the […]
The concentrations of compounds in PBS filtrate are calculated using a dedicated Microsoft Excel calculation script. Proper absorbance wavelengths for calculations are selected for each compound manually based on absorbance maximums (absolute absorbance unit values for the minimum and maximum concentration points within the 0 – 3 OD range). Each final dataset is visually evaluated by the operator, and goodness of fit (R2) is calculated for each calibration curve. […]
samples were diluted 2-fold with acetonitrile containing internal standard and were analyzed using the HPLC system coupled with a tandem mass spectrometer. The effective range of this assay is […]

[3] = system: Aspergillus niger (strain VURV-F 822); test: Antifungal disk diffusion method; format: cell-based
Protocol: Antifungal activity of the synthetic compounds using disk diffusion methods The compounds were tested for plant pathogens Aspergillus niger (strain VURV-F 822), which was received from Culture collection of microorganisms of Crop Research Institute (Prague, Czech […]
The synthetic compounds' antifungal activity was evaluated using a disk diffusion assay for testing filamentous fungi (CLSI M51-A) and broth microdilution antifungal susceptibility testing (EUCAST E.DEF 7.3.1; CLSI M38-A2)
[CLSI M51-A. Method for Antifungal Disk Diffusion Susceptibility Testing of Nondermatophyte Filamentous Fungi; Approved Guideline.CLSI document M51-A. Wayne, PA:
Clinical and Laboratory Standards Institute; 2010. This method is standardized for Altenaria, Aspergillus, Bipolaris, Fusarium, order Mucorales, etc.]
[CLSI M38-A2. 2008. Reference method for broth dilution antifungal susceptibility testing of filamentous fungi, 2nd ed Approved standard M38 -A2 Clinical and Laboratory Standards Institute, […]
Antifungal disk diffusion method
The solutions of fungicides and their analogues were diluted in dimethyl sulfoxide (DMSO) to […]
mg/mL for each test component. Sterile paper disks (ASPECT, Ukraine) were soaked with 10 μl of a solution of the appropriate fungicide from the highest concentration to the lowest.
The fungal strains were cultured on Petri dishes with Saburo dextrose agar (Condalab, Spain) and incubated at 25 °C for 5 days. Sterile Dulbecco's phosphate -buffered saline (DPBS) with 0,1 % Tween 20 was used to cover colonies of fungus for obtained conidia l suspension. Suspension of conidia was adjusted to inoculums 2×10^5 conidia/mL by sterile DPBS.
For antifungal disk diffusion test we used square Petri dishes (FALCON A Corning Brand, USA). The conidial suspension (0.5 mL) was added to Petri dishes with Saburo dextrose agar. The suspension was evenly distributed over the surface of the nutrient medium with a glass spatula.
After the surface of the inoculated medium was dry, the disks with different concentrations of testing compounds were added to the Petri dishes. Each compound was tested in triplicate at different concentrations. Growth control was a disk with 10 μl of DMSO, which was used for test […]
Petri dishes incubated at 25 °C for 72 h. The test compounds at known concentrati on into contact with an inoculated medium then exert a growth-inhibiting effect then a clear zone (the zone of […]
inhibition) appears around the test product. The diameter of a clear zone around the well is […]
If the fungal strain is susceptible to the antifungal agent, then a zone of inhibition appears on the agar plate. If it is resistant to the test compound, then no zone is evident. The size of the zone of inhibition is usually related to the level of antifungal activity present in the compound – a larger […]
The growth rate of all strains for each concentration of test compounds was determined visually and compared with the growth of control.
Broth microdilution antifungal susceptibility testing
A 96-well CELLSTAR plate (sterile, flat-bottomed, polystyrene, transparent) was used to determine MIC by broth microdilution method. Also, dabble straight RPMI-1640 medium with 2% glucose (2x RPMI 2%G) was used for this method. Spore suspension for plate inoculation was prepared according to the method described above for the disc diffusion method.
The each well in the plate contained 49 μl of medium (2x RPMI 2%G), 50 μl of inoculum (prepared in DPBS) and 1 μl of the stock solution of the test substance. Positive control wells contained 50 μl medium and 50 μl inoculum, and sterile control wells contained 50 μl medium and […]
To determine the MIC by the microdilution method, a series of stock solutions of fungicides and their analogues in DMSO with the following concentrations were prepared: 3.2 mg/mL, 1.6 mg/mL, […]
1 μl of the stock solutions of the test substances were added to each well to obtain the following […]
Immediately after adding all the components to the plates, the optical density was measured at […]

[4] = Table S5, injection 1, octanol/PBS pH 7.4
[5] = Table S5, injection 2, octanol/PBS pH 7.4
[6] = Table S5, injection 3, octanol/PBS pH 7.4
[7] = liver microsomes (pooled), pH 7.4, % Remaining without cofactor, no NADPH cofactor, Table S6, 1st batch
[8] = liver microsomes (pooled), pH 7.4, % Remaining, Mean of 2, 7 min, Table S6, 1st batch
[9] = liver microsomes (pooled), pH 7.4, % Remaining, Mean of 2, 15 min, Table S6, 1st batch
[10] = liver microsomes (pooled), pH 7.4, % Remaining, Table S6, 1st batch
[11] = liver microsomes (pooled), Table S6, 1st batch

| D [4] | D [5] | D [6] | solubility kinetic at 2 h [2] | logD at 1 h (physchem; pH 7.4, LogD, pH 7.4) | solubility at 2 h ([2]; pH 7.4, Incubation 1) | solubility at 2 h ([2]; pH 7.4, Incubation 2) | solubility at 2 h ([2]; pH 7.4, Mean) | remaining at 40 min, 2 µM [1, 7] | remaining at […], 2 µM [1, 8] | remaining at […], 2 µM [1, 9] | remaining at 25 min, 2 µM [1, 10] | remaining at 40 min, 2 µM [1, 10] | k el at 2 µM [1, 11] | half-life at 2 µM ([1]; liver microsomes (pooled)) | Structure (SMILES) | other results |
| --- | --- | --- | --- | --- | --- | --- | --- | --- | --- | --- | --- | --- | --- | --- | --- | --- |
|  |  |  |  |  |  |  |  |  |  |  |  |  |  |  | CC(C)NCC(O)COc1cccc2ccccc12 (racemic) [Propranolol, (+,-) Propranolol hydrochloride] | remaining at 40 min, 2 µM (in vitro; microsomes, pH 7.4, % Remaining, Mean of 2): 68%; half-life at 2 µM (in vitro; microsomes, pH 7.4, t1/2): 1.18 h; half-life at 2 µM (in vitro; s9, pH 7.4, t1/2): ~5.93 h; remaining at 40 min, 2 µM ([1]; liver microsomes (pooled), pH 7.4, % Remaining, Table S7, 2st batch): 58% |
| 9.55E+03 | 1.25E+04 | 1.36E+04 | 14 µM (≈ 7.04 µg/mL) | 3.98 | 15 µM (≈ 7.54 µg/mL) | 14 µM (≈ 7.04 µg/mL) | 14 µM (≈ 7.04 µg/mL) | 109% | 81% | 81% | 83% | 76% | 8.33e-05 s⁻¹ | 2.25 h | Cc1nc2c([nH]1)CCN(C(=O)c1ccc(NC(=O)C3CC4CC3(c3ccccc3)C4)cc1)c1ccccc1-2 (stereo not shown) [Compound 26] | microsomal CLint at 2 μM ([1]; human liver microsomes (pooled), pH 7.4): 12 µL/min/mg |
| 7.79E+03 | 7.46E+03 | 8.20E+03 | 18 µM (≈ 12.6 µg/mL) | 3.89 | 18 µM (≈ 12.6 µg/mL) | 19 µM (≈ 13.3 µg/mL) | 18 µM (≈ 12.6 µg/mL) | 106% | 47% | 20% | 9% | 5% | 0.00128 s⁻¹ | 0.15 h | O=C(NC1CCN(CCCCC2(C(=O)NCC(F)(F)F)c3ccccc3-c3ccccc32)CC1)C1CC2CC1(c1ccc(C(F)(F)F)cc1)C2 (stereo not shown) [Compound 27] | logD at 1 h (physchem; pH 7.4, log D (7.4)): 3.9; microsomal CLint at 2 µM ([1]; liver microsomes (pooled), pH 7.4): 186 µL/min/mg |

| Structure (SMILES) | D [4] | D [5] | D [6] | solubility kinetic at 2 h [2] | logD at 1 h (physchem; pH 7.4, LogD, pH 7.4) | solubility at 2 h ([2]; pH 7.4, Incubation 1) | solubility at 2 h ([2]; pH 7.4, Incubation 2) | solubility at 2 h ([2]; pH 7.4, Mean) | remaining at 40 min, 2 µM [1, 7] | remaining at […], 2 µM [1, 8] | remaining at […], 2 µM [1, 9] | remaining at 25 min, 2 µM [1, 10] | remaining at 40 min, 2 µM [1, 10] | k el at 2 µM [1, 11] | half-life at 2 µM ([1]; liver microsomes (pooled)) | other results |
| --- | --- | --- | --- | --- | --- | --- | --- | --- | --- | --- | --- | --- | --- | --- | --- | --- |
| O=C(Nc1ccccc1-c1ccc(Cl)cc1)c1cccnc1Cl [Boscalid, boscalid] | 3.62E+03 | 2.86E+03 | 4.07E+03 | 11 µM (≈ 3.78 µg/mL) |  |  |  |  |  |  |  |  |  |  |  | zone of inhibition at 4 µg/mL ([3]; Concentration 0.004 mg/mL, 0 = absence of antifungal activity, Boscalid, Fluxapyroxad, Bixafen marked st, read-out: Diameter of inhibition zone): 7.5 ± 1 mm; zone of inhibition at 8 µg/mL ([3]; Concentration 0.008 mg/mL, 0 = absence of antifungal activity, read-out: Diameter of inhibition zone): 8.5 ± 1 mm; zone of inhibition at 16 µg/mL ([3]; Concentration 0.016 mg/mL, 0 = absence of antifungal activity, read-out: Diameter of inhibition zone): 10.5 ± 1.5 mm; zone of inhibition at 30 µg/mL ([3]; Concentration 0.03 mg/mL, 0 = absence of antifungal activity, (±)-29 marked st, read-out: Diameter of inhibition zone): 13.5 ± 2 mm; zone of inhibition at 60 µg/mL ([3]; Concentration 0.06 mg/mL, 0 = absence of antifungal activity, Fluxapyroxad, Bixafen, (±)-29 marked st, read-out: Diameter of inhibition zone): 17.8 ± 2.25 mm; zone of inhibition at 120 µg/mL ([3]; Concentration 0.12 mg/mL, (±)-28 marked st (static growth), read-out: Diameter of inhibition zone): 21.2 ± 2.25 mm; zone of inhibition at 250 µg/mL ([3]; Concentration 0.25 mg/mL, (±)-28 marked st (static growth, secondary growth of mycelium), read-out: Diameter of inhibition zone): 20.2 ± 1 mm; zone of inhibition at 500 µg/mL ([3]; Concentration 0.5 mg/mL, 10 μl per disk, read-out: Diameter of inhibition zone): 26 ± 2.5 mm; zone of inhibition at 1000 µg/mL ([3]; Concentration 1 mg/mL, 10 μl per disk, read-out: Diameter of inhibition zone): 29 ± 1.5 mm; zone of inhibition at 2000 µg/mL ([3]; Concentration 2 mg/mL, 10 μl per disk, read-out: Diameter of inhibition zone): 34.2 ± 0.75 mm; MIC ([3]; disk diffusion, small zones of inhibition with secondary mycelial growth, read-out: minimum inhibitory concentration): 4 µg/mL (≈ 11.7 µM) |
